Source: EP0325187B1, “4-alkyl-1, 4-dihydropyridines with PAF-antagonist activity” (ALTER, S.A., priority 1988, dated 1989)

Columns and labels:
RABBIT PLATELETS [1] = assay: Aggregation of washed platelets induced by PAF (turbidimetric, lumiaggregometer); assay type: cell-based, rabbits (male, albino, New Zealand); conditions: Oryctolagus cuniculus, Platelet; compound 10 µM; 1-PAF 1.92 nM; pre-incubation 5 minutes; average of six experiments in triplicate
Protocol: (§1) • 1. STUDIES ON WASHED PLATELETS • 1.1.Aggregation The suspensions of washed platelets were obtained from the blood of rabbits (male, albino, New Zealand) anticoagulated with a citric acid-dextrose solution in the proportion 1:6 (v:v.) The platelet rich plasma (PRP) was obtained by centrifuging the blood samples at 100xg for 10 minutes and the platelet suspensions by centrifuging the PRP at 1,800xg for 15 minutes at 4° C. The pellet thus obtained was washed twice with Tyrode buffer containing citric acid, PGE₁ and apirase, pH 6.5. The platelets thus washed were finally resuspended in Hepes-Tyrode buffer, pH 7.35, supplemented with bovine albumin serum at 0.35 %; Ca⁺⁺2 mM. The final concentration of platelets was adjusted to 300,000 platelets/µl. The aggregation was measured turbidimetrically using a lumiaggregometer (Chrono-Log Co., Haventon, PA, USA) at 37° C under stirring at 1,100 r.p.m. The study was also carried out on aliquots of PRP pre-incubated with the compounds under study at 37° C for 5 minutes. The concentration of the antagonists were in all cases 10 µM and aggregation was induced by adding L-PAF diluted in 5 µl of Hepes buffer/albumin, with a final concentration 1.9 x 10⁻⁹M. • 1.2. Release reaction The platelet secretion was measured in the presence of luciferin/luciferase with ATP release in accord with the method described by Feinman et al. (1977.) • 2. STUDIES ON ANESTHETIZED RATS Hypotension induced by an intravenous injection of PAF-aceter. Male Sprague-Dawley rats anesthetized with pentobarbital (50 mg/kg., intraperitoneally) were used.

RABBIT PLATELETS [2] = assay: Platelet release reaction (ATP release, luciferin/luciferase) induced by PAF; assay type: cell-based, rabbits (male, albino, New Zealand); conditions: Oryctolagus cuniculus, read-out: % […] REACTION, compound 10 µM, 1-PAF 1.92 nM, pre-incubation 5 minutes, average of six experiments in triplicate
Protocol: as §1

Row | Structure (SMILES) | inhibition at 10 µM (RABBIT PLATELETS [1]) [%] | inhibition at 10 µM (RABBIT PLATELETS [2]) [%]
1 | CCSCCOC(=O)C1=C(C)NC(C)=C(C(=O)OC)C1C (stereo not shown) [Example 1, 2-(ethylthio)ethyl-2,6-dimethyl-4-methyl-5-methoxycarbonyl-1,4-dihydropyridin-3-carboxylate] | 44 | 96
2 | COC(=O)C1=C(C)NC(C)=C(C(=O)OCCSC)C1C (stereo not shown) [Example 2, 2-(methylthio)ethyl-2,6-dimethyl-4-methyl-5-methoxycarbonyl-1,4-dihydropyridin-3-carboxylate] | 26 | 75
3 | CCOC(=O)C1=C(C)NC(C)=C(C(=O)OCCSC)C1C (stereo not shown) [Example 3, 2,6-(methylthio)ethyl-2,6 dimethyl-5-ethoxycarbonyl-4-methyl-1,4-dihydropyridin-3-carboxylate] | 21 | 78
4 | CCOC(=O)C1=C(C)NC(C)=C(C(=O)OCCSCC)C1C (stereo not shown) [Example 4, 2-(ethylthio)ethyl-2,6-dimethyl-5-ethoxycarbonyl-4-methyl-1,4-dihydropyridin-3-carboxylate] | 32 | 89
5 | CCOC(=O)C1=C(C)NC(C)=C(C(=O)OCCSC)C1CC (stereo not shown) [Example 6, 2-(methylthio)ethyl-2,6-dimethyl-4-ethyl-5-ethoxycarbonyl-1,4-dihydropyridin-3-carboxylate] | 32 | 89
6 | CCCC1C(C(=O)OCC)=C(C)NC(C)=C1C(=O)OCCSC (stereo not shown) [Example 7, 2-(methylthio)ethyl-2,6-dimethyl-5-ethoxycarbonyl-4-n-propyl-1,4-dihydropyridin-3-carboxylate] | 14 | 50
7 | CCCC1C(C(=O)OCC)=C(C)NC(C)=C1C(=O)OCCSCC (stereo not shown) [Example 8, 2-(ethylthio)ethyl-2,6-dimethyl-5-ethoxycarbonyl-4-n-propyl-1,4-dihydropyridin-3-carboxylate] | 30 | 69
8 | CCOC(=O)C1=C(C)NC(C)=C(C(=O)OCCSc2ccccc2)C1C (stereo not shown) [Example 9, 2-(phenylthio)ethyl-2,6-dimethyl-5-ethoxycarbonyl-4-methyl-1,4-dihydropyridin-3-carboxylate] | 100 | 100
9 | CC1=C(C(=O)OCCSc2ccccc2)C(C)C(C(=O)OCC2CCCO2)=C(C)N1 (stereo not shown) [Example 10, 2-(phenylthio)ethyl-2,6-dimethyl-4-methyl 5-(2-tetrahydrofurfuryloxycarbonyl)-1,4-dihydropyridin-3-carboxylate] | 11 | 49
10 | CC1=C(C(=O)OCCSc2ccccc2)C(C)C(C(=O)OC(C)C)=C(C)N1 (stereo not shown) [Example 11, 2-(phenylthio)ethyl-2,6-dimethyl-5-isopropoxycarbonyl-4-methyl-1,4-dihydropyridin-3-carboxylate] | 33 | 89
11 | COC(=O)C1=C(C)NC(C)=C(C(=O)OCCSc2ccccc2)C1C (stereo not shown) [Example 12, 2-(phenylthio)ethyl-2,6-dimethyl 4-methyl-5-methoxycarbonyl-1,4-dihydropyridin-3-carboxylate] | 100 | 100
